Source: US20110152092A1, “Herbicidal compositions comprising flufenacet” (Bayer CropScience AG, priority 2009, published 2011)

Assays:
ALOMY = test: Greenhouse trial, PE application on sensitive and resistant biotypes (test method 8); assay type: in vivo, Alopecurus myosuroides; settings: g of AS/ha: (A) 90, (B) 1200, (C) 90, mixture 90 + 1200 + 90, iodosulfuron 10
Description: (§1) In the standard design of the test, seeds of various broad-leaved weed and weed grass biotypes (origins) were sown in a 8-13 cm diameter pot filled with natural soil of a standard field soil (loamy silt; non-sterile) and covered with a covering soil layer of about 1 cm. The pots were then cultivated in a greenhouse (12-16 h of light, temperature day 20-22° C., night 15-18° C.) until the time of application. The pots were treated on a laboratory track sprayer with spray liquors comprising the compositions according to the invention, mixtures of the prior art or components used individually. Application of the active compounds or active compound combinations formulated as WG, WP, EC or otherwise was carried out at the appropriate growth stages of the plants. The application rate for the spray application was 100-600 l of water/ha. After the treatment, the plants were returned to the greenhouses.
(§2) About 3 weeks after the application, the soil action or/and foliar action was assessed visually according to a scale of 0-100% in comparison to an untreated comparative group: 0%=no noticeable effect compared to the untreated comparative group; 100%=full effect compared to the untreated comparative group.
(notes: the term “seeds” also includes vegetative propagation forms such as, for example, rhizome pieces; abbreviations used: h light=hours of illumination, g of AS/ha=gram of active substance per hectare, l/ha=liter per hectare, S=sensitive, R=resistant) • 1. Pre-emergence action against weeds: seeds of various broad-leaved weed and weed grass biotypes (origins) were sown in a 8-13 cm diameter pot filled with natural soil of a standard field soil (loamy silt; non-sterile) and covered with a covering soil layer of about 1 cm. The pots were then cultivated in a greenhouse (12-16 h of light, temperature day 20-22° C., night 15-18° C.) until the time of application. The pots were treated at the BBCH stage 00-10 of the seeds/plants on a laboratory track sprayer with spray liquors comprising the compositions according to the invention, mixtures or components used individually, as WG, WP, EC or other formulations. The application rate for the spray application was 100-600 l of water/ha. After the treatment, the plants were returned to the greenhouses and, when required, treated with fertilizer and watered. • 2. Post-emergence action against weeds: seeds of various broad-leaved weed and weed grass biotypes (origins) were sown in a 8-13 cm diameter pot filled with natural soil of a standard field soil (loamy silt; non-sterile) and covered with a covering soil layer of about 1 cm. The pots were then cultivated in a greenhouse (12-16 h of light, temperature day 20-22° C., night 15-18° C.) until the time of application. The pots were treated at various BBCH stages between 11-25 of the seeds/plants, i.e. generally between two to three weeks after the start of the cultivation, on a laboratory track sprayer with spray liquors comprising the compositions according to the invention, mixtures or components used individually, as WG, WP, EC or other formulations. The application rate for the spray application was 100-600 l of water/ha. After the treatment, the plants were returned to the greenhouses and, when required, treated with fertilizer and watered. • 3. Selective pre-emergence action: seeds of various crop species (origins) were sown in a 8-13 cm diameter pot filled with natural soil of a standard field soil (loamy silt; non-sterile) and covered with a covering soil layer of about 1 cm. The pots were then cultivated in a greenhouse (12-16 h of light, temperature day 20-22° C., night 15-18° C.) until the time of application. The pots were treated at the BBCH stage 00-10 of the seeds/plants on a laboratory track sprayer with spray liquors comprising the compositions according to the invention, mixtures or components used individually, as WG, WP, EC or other formulations. The application rate for the spray application was 100-600 l of water/ha. […]

MATCH = test: Greenhouse trial, PE application with different irrigation variations (test method 6); assay type: in vivo, Matricaria chamomilla; settings: g of AS/ha: (A) 120, (B) 1200, (C) 90, mixture 120 + 1200 + 90
Description: as §1, §2
(§3) (notes: the term “seeds” also includes vegetative propagation forms such as, for example, rhizome pieces; abbreviations used: h light=hours of illumination, g of AS/ha=gram of active substance per hectare, l/ha=liter per hectare, S=sensitive, R=resistant) • 1. Pre-emergence action against weeds: seeds of various broad-leaved weed and weed grass biotypes (origins) were sown in a 8-13 cm diameter pot filled with natural soil of a standard field soil (loamy silt; non-sterile) and covered with a covering soil layer of about 1 cm. The pots were then cultivated in a greenhouse (12-16 h of light, temperature day 20-22° C., night 15-18° C.) until the time of application. […]

APESV [1] = test: Greenhouse trial, PO application, post-emergence action against weeds (test method 2); assay type: in vivo, Apera Spica-venti; settings: g of AS/ha: (A) 120, (B) 1200, (C) 120, mixture 120 + 1200 + 120
Description: as §1
as §2, with “group. […]” for “group.”

HORVS [2] = test: Greenhouse trial, activity with different soil types; assay type: in vivo, Hordeum vulgare, summer barley; settings: g of AS/ha: (A) 120, (B) 1200, (C) 90, mixture 120 + 1200 + 90
Description: as §1, §2
(notes: the term “seeds” also includes vegetative propagation forms such as, for example, rhizome pieces; abbreviations used: h light=hours of illumination, g of AS/ha=gram of active substance per hectare, l/ha=liter per hectare, S=sensitive, R=resistant) • 1. Pre-emergence action against weeds: seeds of various broad-leaved weed and weed grass biotypes (origins) were sown in a 8-13 cm diameter pot filled with natural soil of a standard field soil (loamy silt; non-sterile) and covered with a covering soil layer of about 1 cm. The pots were then cultivated in a greenhouse (12-16 h of light, temperature day 20-22° C., night 15-18° C.) until the time of application. The pots were treated at the BBCH stage 00-10 of the seeds/plants on a laboratory track sprayer with spray liquors comprising the compositions according to the invention, mixtures or components used individually, as WG, WP, EC or other formulations. The application rate for the spray application was 100-600 l of water/ha. After the treatment, the plants were returned to the greenhouses and, when required, treated with fertilizer and watered. • 2. Post-emergence action against weeds: seeds of various broad-leaved weed and weed grass biotypes (origins) were sown in a 8-13 cm diameter pot filled with natural soil of a standard field soil (loamy silt; non-sterile) and covered with a covering soil layer of about 1 cm. The pots were then cultivated in a greenhouse (12-16 h of light, temperature day 20-22° C., night 15-18° C.) until the time of application. The pots were treated at various BBCH stages between 11-25 of the seeds/plants, i.e. generally between two to three weeks after the start of the cultivation, on a laboratory track sprayer with spray liquors comprising the compositions according to the invention, mixtures or components used individually, as WG, WP, EC or other formulations. The application rate for the spray application was 100-600 l of water/ha. After the treatment, the plants were returned to the greenhouses and, when required, treated with fertilizer and watered. • 3. […]

LOLPE [3] = test: Greenhouse trial, PO application, post-emergence action against weeds (test method 2); assay type: in vivo, Lolium perenne; settings: g of AS/ha: (A) 120, (B) 1200, (C) 120, mixture 120 + 1200 + 120
Description: as §1
as §2, with “group. […]” for “group.”

HORVS [4] = test: Greenhouse trial, PO application, selective post-emergence action on crop (test method 4); assay type: in vivo, Hordeum vulgare, summer barley; settings: g of AS/ha: (A) 120, (B) 1200, (C) 120, mixture 120 + 1200 + 120
Description: as §1
as §2, with “group. […]” for “group.”

TRZAS = test: Greenhouse trial, PE application with different irrigation variations (test method 6); assay type: in vivo, Triticum aestivum, summer wheat; settings: g of AS/ha: (A) 120, (B) 1200, (C) 90, mixture 120 + 1200 + 90
Description: as §1, §2
(notes: the term “seeds” also includes vegetative propagation forms such as, for example, rhizome pieces; abbreviations used: h light=hours of illumination, g of AS/ha=gram of active substance per hectare, l/ha=liter per hectare, S=sensitive, R=resistant) • 1. Pre-emergence action against weeds: seeds of various broad-leaved weed and weed grass biotypes (origins) were sown in a 8-13 cm diameter pot filled with natural soil of a standard field soil (loamy silt; non-sterile) and covered with a covering soil layer of about 1 cm. The pots were then cultivated in a greenhouse (12-16 h of light, temperature day 20-22° C., night 15-18° C.) until the time of application. The pots were treated at the BBCH stage 00-10 of the seeds/plants on a laboratory track sprayer with spray liquors comprising the compositions according to the invention, mixtures or components used individually, as WG, WP, EC or other formulations. The application rate for the spray application was 100-600 l of water/ha. After the treatment, the plants were returned to the greenhouses and, when required, treated with fertilizer and watered. • 2. Post-emergence action against weeds: seeds of various broad-leaved weed and weed grass biotypes (origins) were sown in a 8-13 cm diameter pot filled with natural soil of a standard field soil (loamy silt; non-sterile) and covered with a covering soil layer of about 1 cm. The pots were then cultivated in a greenhouse (12-16 h of light, temperature day 20-22° C., night 15-18° C.) until the time of application. […]

AVEFA = test: Greenhouse trial, pre-sowing application 7 days prior to sowing (test method 5); assay type: in vivo, Avena fatua; settings: g of AS/ha: (A) 90, (B) 1200, (C) 90, mixture 90 + 1200
Description: as §1
as §2, with “group. […]” for “group.”

LOLPE [5] = test: Greenhouse trial, PE application, pre-emergence action against weeds (test method 1); assay type: in vivo, Lolium perenne; settings: g of AS/ha: (A) 90, (B) 1200, (C) 90, mixture 90 + 1200
Description: as §1
as §2, with “group. […]” for “group.”

APESV [6] = test: Greenhouse trial, PE application at different sowing depths (test method 9); assay type: in vivo, Apera Spica-venti; settings: g of AS/ha: (A) 120, (B) 1200, (C) 90, mixture 90 + 1200 + 90
Description: as §1, §2, §3

With `CCC(CC)Nc1c([N+](=O)[O-])cc(C)c(C)c1[N+](=O)[O-]` [(B) pendimethalin, N-(1-ethylpropyl)-3,4-dimethyl-2,6-dinitrobenzenamine] the “activity ALOMY resistant (visual, scale 0-100%)” value (ALOMY; resistant biotype) was 40%, the “activity ALOMY sensitive (visual, scale 0-100%)” value (ALOMY; sensitive biotype) was 30% and the “activity MATCH (visual, scale 0-100%)” value (MATCH; irrigation from above) was 30%. The “activity MATCH (visual, scale 0-100%)” value (MATCH; irrigation from below) was 18%, the “activity APESV (visual, scale 0-100%)” value (APESV [1]) was 0% and the “activity on crop plant HORVS IU soil (visual, scale 0-100%)” value (HORVS [2]; IU soil) was 20%. For the same compound, the “Difference (of the soil types), HORVS” value (HORVS [2]; IU/EC73 soil versus IU soil) was −20%, the “activity on crop plant HORVS IU/EC73 soil (visual, scale 0-100%)” value (HORVS [2]; IU/EC73 soil) was 0% and the “activity LOLPE (visual, scale 0-100%)” value (LOLPE [3]) was 0%. The “activity on crop plant HORVS (visual, scale 0-100%)” value (HORVS [4]) was 10%, the “activity on crop plant TRZAS (visual, scale 0-100%)” value (TRZAS; irrigation from above) was 50% and the “activity on crop plant TRZAS (visual, scale 0-100%)” value (TRZAS; irrigation from below) was 0%. For the same compound, the “activity AVEFA (visual, scale 0-100%)” value (AVEFA) was 70%, the “activity LOLPE (visual, scale 0-100%)” value (LOLPE [5]) was 10% and the “activity APESV 5 mm (visual, scale 0-100%)” value (APESV [6]; sowing depth 5 mm) was 0%. For the same compound, the “activity APESV 20 mm (visual, scale 0-100%)” value (APESV [6]; sowing depth 20 mm) was 0%.
